Laboratory results as given in patent US20050255493A1, “Molecular targeting of the IGF-1 receptor” (priority 2002, published 2005).
Entries after “also recorded” stand apart in the source; their conditions may differ.

Experiments:
IGF1R [1] = test: IGF1R expression in UC101 ovarian cancer cells treated with 18mer ASOs; format: cell-based, human
Method: The human and murine cell lines used in this study were cultured in RPMI 1640 plus 10% FCS at 37° C. in a humidified atmosphere of 5% CO2. The cultures were negative when tested for Mycoplasma infection. Cultures were passaged the day before transfection to achieve 30-50% confluence the following day. Initial transfections of ASOs used 1-2.5 μg/ml Cytofectin (Glen Research, Sterling, Va.), according to the manufacturer's instructions. Latterly Oligofectamine (Life Sciences) has been used for all ASO and RNAi transfections. The method was as described (see manufacturer's instructions and www.dharmacon.com) with minor modifications. For transfection of monolayers seeded in 6 well plates, 5 μl phosphorothioate oligonucleotide or RNA duplex at 100× final concentration were mixed with 2501 serum-free Optimem (Gibco-BRL). In a separate tube 2 μl Oligofectamine was mixed with 68 μl Optimem. After 10 min incubation at room temperature the contents of the two tubes were mixed and incubated for a further 25 min at room temperature. Monolayers were washed with 1-2 ml Optimem. To the cells were added 175 μl Optimem followed by the 325 μl complexes. […] After 48 hr incubation effects on IGF1R and IR expression were determined by immunoblotting. […]
(§1) IGF1R expression was assessed by immunoblotting as previously described (Macaulay et al 2001). […] Lysates were centrifuged for 15 minutes at 14,000 g, the protein concentration of supernatants was measured using BCA assay reagent (Pierce), and equivalent amounts of protein were separated on 7.5% SDS-PAGE gels and transferred to nitrocellulose. Target protein levels were assessed using antibodies to the β-subunit of the IGF1R or IR (Santa Cruz), phospho-Ser 473 Akt or total Akt (Cell Signalling, New England Biolabs) or β-tubulin (Sigma). Activated IGF1R was detected by immunoprecipitation for phosphotyrosine (P-Tyr-100, Cell Signaling Technology). Primary antibodies were detected with HRP-conjugated secondary antibodies (Dako), and ECL Plus (Amersham Pharmacia). […]

IGF1R mRNA = test: Oligonucleotide scanning array hybridisation with labelled transcript; format: binding, human; conditions: for Rel hyb intensity: relative to the most strongly hybridising sequence on the array; for Hyb intensity: scanning array probed with labelled IGF1R mRNA
Method: Scanning arrays complementary to the region of the IGF1R mRNA from position 537-685 were prepared using the standard techniques described in Southern E. M. et al., Nucleic Acids Res., 1994, 22(8): 1368-1373; and Sohail, M. and Southern, E. M. “Using oligonucleotide scanning arrays to find effective antisense reagents”, Methods in Molecular Biology, vol. 170: DNA Arrays: Methods and Protocols, Ed J. B. Rampal, Humana Press Inc., Totowa, N.J.
The scanning arrays comprise sets of oligonucleotides of various lengths. A series of oligonucleotides, complementary to the target mRNA, is made by sequential coupling of nucleotides to a solid surface. The DNA synthesis reagents are applied to a confined area on the surface of the solid support using a mask. The mask is shifted along the surface after each round of coupling, resulting in a series of oligonucleotides each complementary to a region of the target sequence.
• 2. Remove 1 μL for quantitation (see below). • 3. Remove unincorporated label by Sephadex® G25 column chromatography (see Note 11). • 4. Save 1 μL of the purified transcript for quantitation (see below). • 5. Check the integrity of the transcript by denaturing polyacrylamide gel electrophoresis (10). • 6. Add 10 μL of the scintillation fluid to the samples saved in Steps 2 and 4. • 7. Mix by vortexing and count the samples in a scintillation counter for 1 min. • 8. Calculate the percent incorporation: [formula] • 9. Calculate the amount of RNA made: [formula] Hybridisation to Arrays Made on Polypropylene • 1. Place the array in the hybridisation tube, coiling it in a spiral. • 2. Dilute the radiolabelled transcript in an appropriate volume (10-20 mL depending upon the size of the array and the hybridisation tube) of hybridisation buffer. The mix should cover the array along the length of the tube. • 3. Place items 1 and 2 in the oven at desired temperature for 30 min. Also put approximately 100 mL of the hybridisation buffer in the oven: this is to be used to wash the array at the end of hybridisation. • 4. Pour the hybridisation mix into the tube containing the array and hybridise for 3-4 h. • 5. Remove the hybridisation mix. Briefly wash the array with the hybridisation buffer from Step 3, air dry, cover with cling film and expose to a storage phosphor screen for 16-20 h (see Note 12). • 6. Scan the screen on PhosphorImager or STORM and analyse the image using xvseq (see below). Hybridisation to Arrays Made on Glass • 1. Clean the non-array glass plate with acetone and ethanol to ensure it is grease-free and siliconise it by treatment with dimethyl dichlorosilane solution and place it in lidded box. Also place moist paper towel in the box. • 2. Dilute the radiolabelled transcript in an appropriate volume of the hybridisation buffer (for example, for an array of 250 mm×50 mm use 500-750 μL). • 3. Place items 1 and 2 in an incubator at desired temprature for 30 min. Also put approximately 100 mL of the hybridisation buffer in the oven: this is to be used to wash the array at the end of hybridisation. • 4. Using a micropipette, pipette the hybridisation mix in a line evenly along the length of the non-array glass plate, avoiding formation of air bubbles. • 5. Starting at one end, carefully place the scanning array (face down) on top of the hybridisation mix. The mix will spread out and form a thin film between the two plates. Incubate for 3-4 h. • 6. Separate the plates from each other and wash the array plate with hybridisation buffer to remove unbound mix. Drain the plate, air dry, cover with cling film and expose to a storage phosphor screen for 16-20 h. • 7. Scan the screen on PhosphorImager or STORM and analyse the image using xvseq (see below). Alternative Hybridisation Protocol for Glass or Polypropylene • 1. Assemble with clips the array plate (or polypropylene array pasted with PhotoMount™ on a glass plate) and the non-array plate, using rubber tubing as spacers on two sides. • 2. […]

IGF1R [2] = test: IGF1R level by immunoblotting in transfected MDA-231 cells; format: cell-based, human
Method: (§2) The human and murine cell lines used in this study were cultured in RPMI 1640 plus 10% FCS at 37° C. in a humidified atmosphere of 5% CO2. The cultures were negative when tested for Mycoplasma infection. Cultures were passaged the day before transfection to achieve 30-50% confluence the following day. Initial transfections of ASOs used 1-2.5 μg/ml Cytofectin (Glen Research, Sterling, Va.), according to the manufacturer's instructions. Latterly Oligofectamine (Life Sciences) has been used for all ASO and RNAi transfections. The method was as described (see manufacturer's instructions and www.dharmacon.com) with minor modifications. For transfection of monolayers seeded in 6 well plates, 5 μl phosphorothioate oligonucleotide or RNA duplex at 100× final concentration were mixed with 2501 serum-free Optimem (Gibco-BRL). In a separate tube 2 μl Oligofectamine was mixed with 68 μl Optimem. After 10 min incubation at room temperature the contents of the two tubes were mixed and incubated for a further 25 min at room temperature. Monolayers were washed with 1-2 ml Optimem. To the cells were added 175 μl Optimem followed by the 325 μl complexes. Volumes were scaled up by factors of 2.22 or 6.05 for transfection in 60 mm or 100 mm dishes respectively. Cultures were incubated at 37° C. for 4 hr, and then 50 μl FCS and 3.5 ml RPMI plus 5% FCS were added to each well. After 48 hr incubation effects on IGF1R and IR expression were determined by immunoblotting. Some transfected cultures were serum-starved overnight, divided into two aliquots and treated with 10 nM Long R3-IGF-I (GroPep, Adelaide) or diluent for 30 min at 37° C. prior to lysis.
(§3) IGF1R expression was assessed by immunoblotting as previously described (Macaulay et al 2001). After washing in ice-cold PBS, cells were lysed in 50 mM Hepes pH 7.5, 100 mM NaCl, 10 mM EDTA, 1% Triton-X-100, 4 mM sodium pyrophosphate, 2 mM sodium orthovanadate, 10 mM sodium fluoride, 1 mM PMSF, 2 μg/ml each leupeptin and aprotinin. Lysates were centrifuged for 15 minutes at 14,000 g, the protein concentration of supernatants was measured using BCA assay reagent (Pierce), and equivalent amounts of protein were separated on 7.5% SDS-PAGE gels and transferred to nitrocellulose. Target protein levels were assessed using antibodies to the β-subunit of the IGF1R or IR (Santa Cruz), phospho-Ser 473 Akt or total Akt (Cell Signalling, New England Biolabs) or β-tubulin (Sigma). Activated IGF1R was detected by immunoprecipitation for phosphotyrosine (P-Tyr-100, Cell Signaling Technology). Primary antibodies were detected with HRP-conjugated secondary antibodies (Dako), and ECL Plus (Amersham Pharmacia).
(§4) The ASOs and RNAi duplexes were transfected into MDA-231 cells (human ER negative breast cancer) using Cytofectin or Oligofectamine, as described above. After 48 hr the cells were lysed, and IGF1R and IR levels were measured by immunoblotting. The intensity of the autoradiographic bands was quantified by densitometry, and IGF1R (or IR) levels were corrected for loading differences. The specific IGF1R or IR results are presented as % IGF1R (or IR) level of that in cells transfected with the same concentration of an appropriate control. This was a scrambled control oligonucleotide for ASOs, and an inverted RNA duplex for RNAi.

IR = IR level by immunoblotting in transfected MDA-231 cells; format: cell-based, human
Method: as §2, §3, §4

IGF1R [3] = test: IGF1R levels by immunoblotting in B16 murine melanoma cells transfected with RNAi duplexes; format: cell-based; conditions: 10 nM duplex, 48 hr
Method: The human and murine cell lines used in this study were cultured in RPMI 1640 plus 10% FCS at 37° C. in a humidified atmosphere of 5% CO2. The cultures were negative when tested for Mycoplasma infection. Cultures were passaged the day before transfection to achieve 30-50% confluence the following day. Initial transfections of ASOs used 1-2.5 μg/ml Cytofectin (Glen Research, Sterling, Va.), according to the manufacturer's instructions. Latterly Oligofectamine (Life Sciences) has been used for all ASO and RNAi transfections. The method was as described (see manufacturer's instructions and www.dharmacon.com) with minor modifications. […] After 48 hr incubation effects on IGF1R and IR expression were determined by immunoblotting. […]
as §1, with “Technology).” for “Technology). Primary antibodies were detected with HRP-conjugated secondary antibodies (Dako), and ECL Plus (Amersham Pharmacia).”

[4] = test system: UC101 human ovarian cancer cells; test: Tumorigenicity of UC101 ovarian cancer cells transfected with siRNA (xenografts); format: in vivo, female athymic (nu/nu mice); conditions: UC101 cells transfected with 200 nM siRNA, nu/nu mice
Method: UC101 ovarian cancer cells were transfected with 200 nM siRNA, mixed with irradiated NIH-3T3 cells and inoculated into the flanks of female athymic (nu/nu mice).
Tumorigenicity testing was conducted using UC101 human ovarian cancer cells transfected with 200 nM siRNA. After 48 hr the cells were inoculated into the flanks of female athymic (nu/nu mice), using 5×10^6 tumour cells mixed with 5×10^6 irradiated NIH-3T3 cells per mouse. Tumours were measured and volumes calculated as described (Macaulay et al., Oncogene 20: 2029-40, 2001). All procedures were performed in accordance with the Home Office Scientific Procedures Act 1986, and with the approval of the Animal Ethics Committee of Cancer Research UK.

IGF-I signaling to Akt = test: IGF signalling: phosphorylation of IGF1R β-subunit and Akt after IGF-I in transfected MDA-MB-231 cells; format: cell-based, human; conditions: MDA-MB-231, 100 nM duplexes, 50 nM IGF-1 for 30 min
Method: as §3
MDA-MB-231 cells transfected with 100 nM RNA duplexes were serum-starved overnight and treated with 50 nM IGF-1 or diluent for 30 min. The cells were lysed and lysates were analysed by immunoblotting for IGF1R, phospho-Ser473-Akt and total Akt, and by phosphotyrosine immunoprecipitation and IGF1R immunoblotting to detect phosphorylated IGF1R β-subunit (see FIG. 7).

IGF1R [5] = test: IGF1R levels by immunoblotting in human tumour cell lines transfected with RNAi duplexes; format: cell-based; conditions: for IGF1R level as % of levels in cells transfected with inverted control duplex: 10 nM duplex, 48 hr
Method: as §2
as §3, with “Pharmacia). […]” for “Pharmacia).”
Tumour cells were transfected with 10 nM duplexes and IGF1R levels were measured after 48 hr. After correction for loading differences IGF1R levels in cells transfected with RNAi were expressed as % of levels in cells transfected with equivalent inverted control duplex.

Substance: ASO2/18mer: phosphorothioate antisense oligonucleotide GGTCTTCTCACACATCGG, SEQ ID NO:6 (DNA, all phosphorothioate, methylation of C not given here)
- IGF1R expression, % of levels in cells treated with scrambled control (IGF1R [1]): 39% of levels in cells treated with Scr2
- Rel hyb intensity (IGF1R mRNA): 1.00
- Hyb intensity (IGF1R mRNA): 56,026

Substance: ASO6: phosphorothioate antisense oligonucleotide CTTATTCCCCACAATGTA, SEQ ID NO:17; poorly hybridising comparison (DNA, all phosphorothioate, methylation of C not given here)
- IGF1R Protein Level (% control) (IGF1R [2]; MDA-231 cells, 300 nM ASO, 48 hr, vs scrambled control): ˜150 % control
- IGF1R expression, % of levels in cells treated with scrambled control (IGF1R [1]): 98% of levels in cells treated with Scr6
- IR Protein Level (% control) (IR; 300 nM ASO, 48 hr, vs scrambled control): 100 % control
- Hybridisation to IGF1R mRNA on scanning array (IGF1R mRNA; 37° C. (and 23° C.)): hybridises poorly
- Rel hyb intensity (IGF1R mRNA): 0.01
- Hyb intensity (IGF1R mRNA): 560

Substance: R6: RNAi duplex CUACAUUGUGGGGAAUAAGTT / TTGAUGUAACACCCCUUAUUC, SEQ ID NO:34 (CUACAUUGUGGGGAAUAAGNN; second strand not cited, chemistry not fully specified)
- IGF1R downregulation compared between 21mer duplexes (IGF1R [2]; MDA-231 cells, 0.5, 5 and 50 nm (FIG. 5)): significantly less potent; also recorded: less than the effect of the mutant duplex Mut2
- IGF1R level as % of levels in cells transfected with inverted control duplex (IGF1R [3]): 72 ± 14%
- Tumour development [4]: rapidly growing tumours
- IGF-I signaling to Akt / IGF-1-induced phosphorylation (IGF-I signaling to Akt): not sufficient to abolish IGF-I signaling to Akt
- IGF1R downregulation (IGF1R [5]; 10 nM, human ME melanoma and A549 NSCLC): essentially inactive
- IGF1R level as % of levels in cells transfected with inverted control duplex (IGF1R [5]; A549 human non-small cell lung): 102 ± 16%
- IGF1R level as % of levels in cells transfected with inverted control duplex (IGF1R [5]; DU145 human prostate cancer): 74 ± 8%
- IGF1R level as % of levels in cells transfected with inverted control duplex (IGF1R [5]; ME human melanoma): 104 ± 5%

Substance: TSS ASO: ASO TCCTCCGGAGCCAGACTT, SEQ ID NO:21, complementary to human IGF1R translation initiation site, identical to that described by Baserga et al. (DNA, all phosphorothioate, methylation of C not given here) [reference compound]
- IGF1R expression, % of levels in cells treated with scrambled control (IGF1R [1]): 33% of levels in cells treated with
- IR downregulation (IR; TSS ASO at 300 nM): detectable reduction in IR levels
